# From patent publication US20240150377A1, “MODULATORS OF CYSTIC FIBROSIS TRANSMEMBRANE CONDUCTANCE REGULATOR” (VERTEX PHARMACEUTICALS INCORPORATED, priority 2020, published 2024)
# Like-named read-outs stand apart in the source and are kept apart here.
# Target: CFTR (Homo sapiens, UniProt P13569)
# Experiment: Membrane potential dye, Enteroid Assay B
# Format: cell-based
# Details: for Ent. B Max Activity: chloride transport as % of triple combination control (Enteroid Assay B); for EC50: read-out: Ent. B EC50
# Method: Base medium (ADF+++) consisted of Advanced DMEM/Ham's F12, 2 mM Glutamax, 10 mM HEPES, […] penicillin/streptomycin.
# Intestinal enteroid maintenance medium (IEMM) consisted of ADF+++, 1× B27 supplement, 1× N2 supplement, 1.25 mM N-acetyl cysteine, 10 mM Nicotinamide, 50 ng/mL hEGF, 10 nM Gastrin, 1 μg/mL hR-spondin-1, 100 ng/mL hNoggin, TGF-b type 1 inhibitor A-83-01, 100 μg/mL Primocin, 10 μM P38 MAPK inhibitor SB202190.
# Bath 1 Buffer consisted of 1 mM MgCl2, 160 mM NaCl, 4.5 mM KCl, 10 mM HEPES, 10 mM Glucose, 2 mM CaCl2).
# Chloride Free Buffer consisted of 1 mM Magnesium Gluconate, 2 mM Calcium Gluconate, 4.5 mM Potassium Gluconate, 160 mM Sodium Gluconate, 10 mM HEPES, 10 mM Glucose.
# BathI Dye Solution consisted of Bath 1 Buffer, 0.04% Pluronic F127, 20 μM Methyl Oxonol, 30 μM CaCCinh-A01, 30 μM Chicago Sky Blue.
# Chloride Free Dye Solution consisted of Chloride Free Buffer, 0.04% Pluronic F127, 20 μM Methyl Oxonol, 30 μM CaCCinh-A01, 30 μM Chicago Sky Blue.
# Chloride Free Dye Stimulation Solution consisted of Chloride Free Dye Solution, 10 μM forskolin, 100 μM IBMX, and 300 nM Compound III.
# Human intestinal epithelial enteroid cells were obtained from the Hubrecht Institute for Developmental Biology and Stem Cell Research, Utrecht, The Netherlands and expanded in T-Flasks as previously described (Dekkers J F, Wiegerinck C L, de Jonge H R, Bronsveld I, Janssens H M, de Winter-de Groot K M, Brandsma A M, de Jong N W M, Bijvelds M J C, Scholte B J, Nieuwenhuis E E S, van den Brink S, Clevers H, van der Ent C K, Middendorp S and M Beekman J M. A functional CFTR assay using primary cystic fibrosis intestinal organoids. Nat Med. 2013 July;19(7):939-45.).
# 3. Enteroid Cell Harvesting and Seeding
# Cells were recovered in cell recovery solution, collected by centrifugation at 650 rpm for 5 min at 4° C., resuspended in TrypLE and incubated for 5 min at 37° C. Cells were then collected by centrifugation at 650 rpm for 5 min at 4° C. and resuspended in IEMM containing 10 μM ROCK inhibitor (RI). The cell suspension was passed through a 40 μm cell strainer and resuspended at 1×10^6 cells/mL in IEMM containing 10 μM RI. Cells were seeded at 5000 cells/well into multi-well plates and incubated for overnight at 37° C., 95% humidity and 5% CO2 prior to assay.
# 5. Membrane Potential Dye, Enteroid Assay B
# Enteroid cells were incubated with test compound in IEMM for 18-24 hours at 37° C., 95% humidity and 5% CO2. […] Briefly, cells were washed 5 times in Bath 1 Buffer. Bath 1 Dye Solution was added and the cells were incubated for 25 min at room temperature. Following dye incubation, cells were washed 3 times in Chloride Free Dye Solution. Chloride transport was initiated by addition of Chloride Free Dye Stimulation Solution and the fluorescence signal was read for 15 min. […] Chloride transport was then expressed as a percentage of the chloride transport following treatment with 1 μM (14S)-8-[3-(2-{Dispiro[2.0.2.1]heptan-7-yl}ethoxy)-1H-pyrazol-1-yl]-12,12-dimethyl-2λ^6-thia-3,9,11,18,23-pentaazatetracyclo[17.3.1.111,14.05,10]tetracosa-1(22),5,7,9,19(23),20-hexaene-2,2,4-trione, 3 μM (R)-1-(2,2-difluorobenzo[d][1,3]dioxol-5-yl)-N-(1-(2,3-dihydroxypropyl)-6-fluoro-2-(1-hydroxy-2-methylpropan-2-yl)-1H-indol-5-yl)cyclopropanecarboxamide and 300 nM acute N-[2,4-bis(1,1-dimethylethyl)-5-hydroxyphenyl]-1,4-dihydro-4-oxoquinoline-3-carboxamide triple combination control (% Activity).
# [1] = Table 8, human enteroid cells, 18-24 hours, acute 10 μM forskolin and 300 nM ivacaftor
# Sequence of CFTR (P13569 with tags, fused parts or gaps DEL508-508): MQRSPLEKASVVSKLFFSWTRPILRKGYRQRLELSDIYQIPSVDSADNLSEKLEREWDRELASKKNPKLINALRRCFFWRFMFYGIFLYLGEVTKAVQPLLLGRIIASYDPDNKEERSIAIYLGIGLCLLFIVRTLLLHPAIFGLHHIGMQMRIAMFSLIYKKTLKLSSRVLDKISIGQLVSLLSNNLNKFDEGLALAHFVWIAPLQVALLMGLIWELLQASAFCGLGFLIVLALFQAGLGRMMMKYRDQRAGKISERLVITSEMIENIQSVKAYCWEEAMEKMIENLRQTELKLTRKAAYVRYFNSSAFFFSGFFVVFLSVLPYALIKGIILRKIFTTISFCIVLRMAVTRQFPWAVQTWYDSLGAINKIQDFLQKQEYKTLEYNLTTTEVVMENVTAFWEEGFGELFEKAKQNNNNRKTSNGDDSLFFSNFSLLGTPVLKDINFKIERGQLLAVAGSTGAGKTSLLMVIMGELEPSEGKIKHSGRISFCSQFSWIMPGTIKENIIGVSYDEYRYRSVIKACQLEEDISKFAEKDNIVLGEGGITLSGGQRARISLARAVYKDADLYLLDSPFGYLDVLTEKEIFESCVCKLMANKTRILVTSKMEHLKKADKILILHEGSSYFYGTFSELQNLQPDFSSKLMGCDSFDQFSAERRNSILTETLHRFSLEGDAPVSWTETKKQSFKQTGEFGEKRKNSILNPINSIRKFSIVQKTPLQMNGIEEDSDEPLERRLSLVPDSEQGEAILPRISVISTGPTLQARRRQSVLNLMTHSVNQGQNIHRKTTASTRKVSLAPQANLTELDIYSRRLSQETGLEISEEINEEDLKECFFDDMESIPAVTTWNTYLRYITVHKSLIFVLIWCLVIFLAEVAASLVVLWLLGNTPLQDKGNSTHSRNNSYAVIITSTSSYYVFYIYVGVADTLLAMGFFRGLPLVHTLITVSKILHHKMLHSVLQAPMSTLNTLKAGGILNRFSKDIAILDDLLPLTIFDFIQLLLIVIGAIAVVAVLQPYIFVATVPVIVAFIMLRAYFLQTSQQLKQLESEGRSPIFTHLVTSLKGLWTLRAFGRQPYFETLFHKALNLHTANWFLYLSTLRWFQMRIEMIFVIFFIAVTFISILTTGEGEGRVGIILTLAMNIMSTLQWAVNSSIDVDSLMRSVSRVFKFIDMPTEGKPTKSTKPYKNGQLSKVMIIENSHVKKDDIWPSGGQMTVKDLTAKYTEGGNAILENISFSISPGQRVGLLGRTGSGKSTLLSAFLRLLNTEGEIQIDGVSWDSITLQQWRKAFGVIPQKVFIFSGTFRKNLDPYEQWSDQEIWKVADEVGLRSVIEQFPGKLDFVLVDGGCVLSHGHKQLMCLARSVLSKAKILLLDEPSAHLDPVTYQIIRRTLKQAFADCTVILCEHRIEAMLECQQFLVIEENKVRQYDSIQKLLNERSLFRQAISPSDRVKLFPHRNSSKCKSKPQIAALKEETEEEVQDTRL
Compound,Ent. B Max Activity (Table 8),EC50 [1] [µM],Ent. B Max Activity (%) (Table 9),EC50 (Table 9) [µM],other results
"Cc1cccc(C)c1-c1cc2nc(n1)NS(=O)(=O)c1cc(nn1C)C(=O)N(Cc1ncccn1)[C@H](CC(C)(C)C)CO2 [Compound 70, (10R)-15-(2,6-Dimethylphenyl)-10-(2,2-dimethylpropyl)-5-methyl-3,3-dioxo-9-(pyrimidin-2-ylmethyl)-12-oxa-3λ^6-thia-2,5,6,9,16,17-hexazatricyclo[11.3.1.14,7]octadeca-1(17),4(18),6,13,15-pentaen-8-one]",++ (++ is 30-60%),< 1,–,–,–
"Cc1cccc(C)c1-c1cc2nc(n1)NS(=O)(=O)c1cccc(c1)C(=O)N(CCN(C)C(=O)OC(C)C)[C@H](CC(C)C)CO2 [Compound 91, Isopropyl N-[2-[(11R)-6-(2,6-dimethylphenyl)-11-isobutyl-2,2,13-trioxo-9-oxa-2λ^6-thia-3,5,12,19-tetrazatricyclo[12.3.1.14,8]nonadeca-1(18),4(19),5,7,14,16-hexaen-12-yl]ethyl]-N-methyl-carbamate]",–,–,–,–,"Ent. B Max Activity (Table 7): +++ (+++ is >60%); EC50 (Table 7, human enteroid cells, 18-24 hours, acute 10 μM forskolin and 300 nM ivacaftor): < 1 µM"
"Cc1cccc(C)c1-c1cc2nc(n1)NS(=O)(=O)c1cccc(c1)C(=O)N(CCCC(=O)N(C)C)[C@H](CC(C)C)CO2 [Compound 92, 4-[(11R)-6-(2,6-Dimethylphenyl)-11-isobutyl-2,2,13-trioxo-9-oxa-2λ^6-thia-3,5,12,19-tetrazatricyclo[12.3.1.14,8]nonadeca-1(18),4(19),5,7,14,16-hexaen-12-yl]-N,N-dimethyl-butanamide]",+++ (+++ is >60%),< 1,–,–,–
"Cc1cccc(C)c1-c1cc2nc(n1)NS(=O)(=O)c1cccc(c1)C(=O)N(CCCO)[C@H](CC(C)C)CO2 [Compound 96, (11R)-6-(2,6-Dimethylphenyl)-12-(3-hydroxypropyl)-11-(2-methylpropyl)-9-oxa-2λ^6-thia-3,5,12,19-tetraazatricyclo[12.3.1.14,8]nonadeca-1(18),4,6,8(19),14,16-hexaene-2,2,13-trione]",+++ (+++ is >60%),< 1,–,–,–
"Cc1cccc(C)c1-c1cc2nc(n1)NS(=O)(=O)c1cccc(c1)C(=O)N(CCCCC(C)(C)O)[C@H](CC(C)(C)C)CO2 [Compound 107, (11R)-6-(2,6-Dimethylphenyl)-11-(2,2-dimethylpropyl)-12-(5-hydroxy-5-methyl-hexyl)-2,2-dioxo-9-oxa-2λ^6-thia-3,5,12,19-tetrazatricyclo[12.3.1.14,8]nonadeca-1(18),4(19),5,7,14,16-hexaen-13-one]",+++ (+++ is >60%),< 1,–,–,–
"Cc1cccc(C)c1-c1cc2nc(n1)NS(=O)(=O)c1cccc(c1)C(=O)N(Cc1ccccn1)[C@H](CC(C)(C)C)CO2 [Compound 124, (11R)-6-(2,6-Dimethylphenyl)-11-(2,2-dimethylpropyl)-12-[(pyridin-2-yl)methyl]-9-oxa-2λ^6-thia-3,5,12,19-tetraazatricyclo[12.3.1.14,8]nonadeca-1(17),4,6,8(19),14(18),15-hexaene-2,2,13-trione]",+++ (+++ is >60%),< 1,–,–,–
Cc1cccc(C)c1-c1cc2nc(n1)NS(=O)(=O)c1cccc(c1)C(=O)N(Cc1ccc(-c3cn[nH]c3)cc1)[C@H](CC(C)(C)C)CO2 [Compound 317],–,–,+++ (+++ is >600%),< 1,–
Cc1cccc(C)c1-c1cc2nc(n1)NSc1cccc(c1)C(=O)N(Cc1ccc(C(C)(C)O)nc1)[C@H](CC(C)(C)C(F)(F)F)CO2 [Compound 320],–,–,+++ (+++ is >600%),< 1,–
Cc1cccc(C)c1-c1cc2nc(n1)NS(=O)(=O)c1cccc(c1)C(=O)N(Cc1ncccc1N1CCOCC1)[C@H](CC(C)(C)C)CO2 [Compound 386],–,–,+++ (+++ is >600%),< 1,–

# Further lines, with some results ahead:
Ent. B Max Activity (Table 8),EC50 [1] [µM],Ent. B Max Activity (%) (Table 9),EC50 (Table 9) [µM],Compound,other results
+++ (+++ is >60%),< 1,–,–,"Cc1cccc(C)c1-c1cc2nc(n1)NS(=O)(=O)c1cccc(n1)C(=O)N(CCCCC(C)(C)O)[C@H](CC(C)(C)C)CO2 [Compound 76, (11R)-6-(2,6-Dimethylphenyl)-11-(2,2-dimethylpropyl)-12-(5-hydroxy-5-methylhexyl)-9-oxa-2λ^6-thia-3,5,12,18,19-pentaazatricyclo[12.3.1.14,8]nonadeca-1(18),4(19),5,7,14,16-hexaene-2,2,13-trione]",–
–,–,+++ (+++ is >600%),< 1,"Cc1cccc(C)c1-c1cc2nc(n1)NS(=O)(=O)c1cccc(c1)C(=O)N(CCc1ccc(C(C)(C)O)cc1)[C@H](CC(C)(C)C)CO2 [Compound 108, (11R)-6-(2,6-Dimethylphenyl)-11-(2,2-dimethylpropyl)-12-[2-[4-(1-hydroxy-1-methyl-ethyl)phenyl]ethyl]-2,2-dioxo-9-oxa-2λ^6-thia-3,5,12,19-tetrazatricyclo[12.3.1.14,8]nonadeca-1(18),4(19),5,7,14,16-hexaen-13-one]",–
–,–,+++ (+++ is >600%),< 1,"Cc1cccc(C)c1-c1cc2nc(n1)NS(=O)(=O)c1cccc(c1)C(=O)N(Cc1cccc(N)n1)[C@H](CC(C)(C)C)CO2 [Compound 125, (11R)-12-[(6-Amino-2-pyridyl)methyl]-6-(2,6-dimethylphenyl)-11-(2,2-dimethylpropyl)-2,2-dioxo-9-oxa-2λ^6-thia-3,5,12,19-tetrazatricyclo[12.3.1.14,8]nonadeca-1(18),4(19),5,7,14,16-hexaen-13-one]",–
–,–,+++ (+++ is >600%),–,Cc1cccc(C)c1-c1cc2nc(n1)NS(=O)(=O)c1cccc(c1)C(=O)N(Cc1ccc(C3CNCN3C)cc1)[C@H](CC(C)(C)C)CO2 (some centres unmarked) [Compound 316],–
–,–,+++ (+++ is >600%),< 1,Cc1cccc(C)c1-c1cc2nc(n1)NS(=O)(=O)c1cccc(c1)C(=O)N(Cc1ccc(-c3csc(OC(C)C)n3)cc1)[C@H](CC(C)(C)C)CO2 [Compound 318],–
–,–,+ (+ is <300%),3 to 30,Cc1cccc(C)c1-c1cc2nc(n1)NS(=O)(=O)c1cccc(c1)C(=O)N(CC1CN(C(=O)CO)C1)[C@H](CC(C)(C)C)CO2 [Compound 319],–
–,–,+++ (+++ is >600%),< 1,Cc1cccc(C)c1-c1cc2nc(n1)NSc1cccc(c1)C(=O)N(Cc1ccc(C(C)(C)O)cc1)[C@H](CC(C)(C)C(F)(F)F)CO2 [Compound 321],–
+++ (+++ is >60%),< 1,–,–,Cc1cccc(C)c1-c1cc2nc(n1)NS(=O)(=O)c1cccc(c1)C(=O)N(CCC(C)(C)C(C)(C)O)[C@H](CC(C)(C)C)CO2 [Compound 334],–
+++ (+++ is >60%),< 1,–,–,Cc1cccc(C)c1-c1cc2nc(n1)NS(=O)(=O)c1cccc(c1)C(=O)N(C[C@H]1C[C@@H](C(C)(C)O)C1)[C@H](CC(C)(C)C)CO2 [Compound 335],–
+++ (+++ is >60%),< 1,–,–,Cc1cccc(C)c1-c1cc2nc(n1)NS(=O)(=O)c1cccc(c1)C(=O)N(C)CC(c1ccc(CC3(C(F)(F)F)CC3)cn1)O2 (centres unmarked) [Compound 336],–
–,–,+++ (+++ is >600%),< 1,Cc1cccc(C)c1-c1cc2nc(n1)NS(=O)(=O)c1cccc(c1)C(=O)N(Cc1ncccc1C(C)(C)O)[C@H](CC(C)(C)C)CO2 [Compound 385],–
–,–,+++ (+++ is >600%),< 1,Cc1cccc(C)c1-c1cc2nc(n1)NS(=O)(=O)c1cccc(c1)C(=O)N(Cc1ccc(N)nc1)[C@H](CC(C)(C)C)CO2 [Compound 387],–
